The text below walks through data of patent publication US10731187B2, “Recombinant strain producing O-aminobenzoate and fermentative production of aniline from renewable resources via 2-aminobenzoic acid” (Covestro Deutschland AG, priority 2014, dated 2020).

The conditions of data set [1]: cited from earlier work.
In data set [2] the target is T1, E. coli TrpEG (anthranilate synthase) variant TrpEGS40R, mutation S40R (SEQ ID NO: 52; SEQ ID No. 50-51) (Escherichia coli, UniProt P00895).
T1 construct: S40R lies in TrpE
The data set is described as follows: Anthranilate synthase activity in cell lysate of C. glutamicum ΔtrpD/pEKEx2-trpEG^S40R (KM and vmax). Format: biochemical. As to conditions: raw extract (cell lysate), 25 °C, 20 mM L-glutamine, 10 mM MgCl2. From the text:
In more specific embodiments of the recombinant microbial host cell of invention, the Corynebacterium glutamicum microbial host cell, preferably Corynebacterium glutamicum ATCC 13032, can further overexpress one or more of the genes selected from the group consisting of galP (SEQ ID NO: 30), iolT2 (SEQ ID NO: 31), ppgk (SEQ ID NO: 32), pps (SEQ ID NO: 33-35), ppk (SEQ ID NO: 36), zwfl (SEQ ID NO: 37), opcA (SEQ ID NO: 38-39), tktCg (SEQ ID NO: 40), tktEc (SEQ ID NO: 41), talCg (SEQ ID NO: 42), tame (SEQ ID NO: 43), a gene encoding TrpEGS38F (trpEG^S38F, SEQ ID NO: 50), a gene encoding TrpEGS38R (trpEG^S38R, SEQ ID NO: 51), a gene encoding TrpEGS40R (trpEG^S40R, SEQ ID NO: 52), a gene encoding TrpEGS40F (trpEG^S40F, SEQ ID NO: 53), the gene encoding AroGD146N (aroG^D146N, SEQ ID NO: 55), aroL of Escherichia coli LJ110 (SEQ ID NO: 93), aroK (SEQ ID NO: 94), glnA (SEQ ID NO: 95), and qsuA (SEQ ID NO: 96). […]

The test system of data set [3] is Corynebacterium glutamicum. Put plainly: Growth (OD600) in shake flask cultures supplemented with toxic substances. As to conditions: 3 g/L, pH 7 (MOPS), 25 h. Format: cell-based, Corynebacterium glutamicum DSM 20300 (=ATCC 13032). The source says:
(§1) Several strains commonly used industrial biotechnology were investigated regarding their natural tolerance towards oAB and to organic solvents in question for later product extraction (e.g. 1-dodecanol or octanol). Furthermore, the influence of the used pH value was investigated. It was known from previous experiments that at least for E. coli the toxicity of aromatic compounds depends strongly on the pH value, probably because protonated acids can much more efficiently penetrate the cell membrane and accordingly their toxicity rises severely. The extraction of oAB in an organic phase is supposed to work best at low pH values, close to the isoelectric point of oAB. The most relevant host strains considered were: Escherichia coli K12, Corynebacterium glutamicum DSM 20300 (=ATCC 13032), Pseudomonas putida KT2440, Bacillus subtilis subsp. 168, Saccharomyces cerevisiae DSM 70449, and Pichia pastoris X33 (DSM 70382).
(§2) To investigate the chosen strains towards the mentioned characteristics shake flasks and small scale fermentation experiments were performed and the organisms were supplemented with the toxic substances (aminobenzoates, solvents) at differed concentrations, different pH values, and the behaviour of the strains was studied. […]

The next data set concerns P. putida. Put plainly: Shake flask growth (OD600) with supplementation of toxic substances. As to conditions: after octanol addition, pH 7, shake flask. It is filed as cell-based, Pseudomonas putida KT2440.
Source text: as §1, §2

A further data set relates to all organisms. Put plainly: Toxicity of the extraction solvent octanol, shake flask growth. As to conditions: 0.1 g/L and 3 g/L octanol. It is filed as cell-based.
Source text: as §1, §2

A further data set has as its system E. coli. Put plainly: Shake flask growth (OD600) with supplementation of toxic substances. Conditions: 3 g/L pAB, pH 7, shake flask. Format: cell-based, Escherichia coli K12.
Source text: as §1, §2

For `CCCCCCCCCCCCO` [1-dodecanol], the miscibility in water in data set [1] (1-dodecanol) is reported as 0.004 g/L.
Turning to `C=C(O[C@@H]1C=C(C(=O)O)C=C[C@H]1O)C(=O)O` [chorismate], the Vmax in data set [2] is 317.9 mU/mg.
`Nc1ccccc1C(=O)O` [oAB, o-aminobenzoate]: the growth inhibition entry in data set [3] is listed as “growth was not inhibited”.
As to `CCCCCCCCO` [octanol], the entries for the “growth (OD600)” value in the data set on P. putida and in the data set on all organisms were “minor growth activity” and “unable to grow”, respectively. Besides, the solubility in water entry in data set [1] (octanol) is “about 0.1 g/L”.
Consider `Nc1ccc(C(=O)O)cc1` [pAB, 4-aminobenzoate, reference compound], for which the “growth (OD600)” value in the data set with E. coli is given as “not inhibited”.
